Patent publication US20240109897A1, “MODULATORS OF FPR1 AND METHODS OF USING THE SAME” (BEIJING TIANTAN HOSPITAL, priority 2021, published 2024)

How the values were obtained:
[1] = target: T1, FPR1 (UniProt P21462); assay: fMLP-FPR1 mediated calcium signaling assay in FPR1-overexpressing 293T cells; assay type: cell-based, human or mouse; details: inhibition of fMLP-FPR1 mediated intracellular calcium change; hFPR1 or mFPR1 overexpressing 293T cells; 10 min preincubation; INDO-1 AM, FACS
T1 sequence (P21462 1-350): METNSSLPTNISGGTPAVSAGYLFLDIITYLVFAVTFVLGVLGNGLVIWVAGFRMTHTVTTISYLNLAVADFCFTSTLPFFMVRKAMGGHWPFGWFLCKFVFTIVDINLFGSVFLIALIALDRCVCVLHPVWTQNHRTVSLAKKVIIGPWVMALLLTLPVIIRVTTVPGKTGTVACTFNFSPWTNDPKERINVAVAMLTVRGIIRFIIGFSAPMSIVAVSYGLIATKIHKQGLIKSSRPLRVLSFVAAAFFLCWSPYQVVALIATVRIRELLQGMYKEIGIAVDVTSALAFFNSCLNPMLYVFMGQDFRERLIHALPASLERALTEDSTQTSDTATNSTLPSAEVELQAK
Method: The effects of the compounds of this disclosure on regulating the FPR1-mediated cell signaling were measured by monitoring the cellular calcium level change, as illustrated by the exemplary examples in Table 2. The dose response of the illustrated examples are reported categorically using the following ranking criteria: *** (IC50≤100 nM); ** (IC50≥100 to ≤1000 nM); * (IC50≥1000 to ≤10,000 nM); N.D.—not detected.
The coding DNA sequence (CDS) of human FPR1 (NM_001193306) and mouse FPR1 (NM_013521) were cloned and inserted to the lentivirus vector GV367 (Vector information:http://www.genechem.com.cn/index/supports/tool_search.html?keywords=GV367) under the conduction of pCMV promoter. 293T cells were cultured in H-DMEM supplemented with 10% FBS and 1% penicillin-streptomycin (PS) at 37° C. in 5% CO2 Incubator. 293T cells were transfected with lentivirus vector GV367 containing the CDS of human or mouse FPR1 for 24 h and then cultured with complete medium for another 48 h. At 72 h after transfected, cells were passaged, and 5 μg/ml puromycin was added to screen FPR1-transfected 293T cells. The overexpression of human or mouse FPR1 in 293 T cells were detected by immunostaining with anti-mouse or human FPR1 antibodies (Biolegend or Antibody Online).
Cultured hFPR1 or mFPR1 overexpressing 293T cells were labeled with 1 μM INDO-1 AM calcium sensor dye (eBioscience) for 30 min at 37° C. After washed with 1×PBS, cells were resuspended with H-DMEM containing 3% FBS, and were maintained on ice prior to the measurement of intracellular calcium concentration. To measure the inhibitory potency of designed potential FPR1 antagonists, hFPR1 or mFPR1 overexpressing 293T cells were incubated with the compound for 10 min at room temperature. The cytoplasmic calcium levels were then measured by FACS Aria III at 37° C. prior to and after the stimulation of fMLP. We defined the immunofluorescence intensity of indo-1 AM before adding fMLP as the basal value, and the intensity at the peak immunofluorescence reduction after adding fMLP as minimum value for each sample. The change of intracellular calcium was calculated as follow: (basal value−minimum value)/basal value×100%. The IC50 of each compound in inhibiting fMLP-FPR1 mediated intracellular calcium concentration in 293T cells were automatically calculated with Prism 8.0.2 software (GraphPad) after inputting a series of change of intracellular calcium at multiple concentration gradients (from 0 nM to 100 μM).

[2] = system: ICH mice; assay: MRI lesion, hematoma and perihematomal edema volume in intracerebral hemorrhage (ICH) mouse model; assay type: in vivo; details: brain MRI, vs vehicle
From the text: The intracerebral hemorrhage (ICH) model in mice was used to illustrate the protective benefits of the compounds of this disclosure, and FIG. 1 depicts the procedure in preparing this model. ICH was induced in C57 B/L6 male mice by the injection of an autologous blood or collagenase as previously described (Lauer et al., Circulation 124: 1654-1662 (2011); Rynkowski et al., Nat. Protoc. 3:122-128 (2008)). Mice were anesthetized using isoflurane inhalation and fixed on a stereotactic frame. A burr hole was drilled on the right side of the skull at 2.3 mm lateral to the midline and 0.5 mm anterior to the bregma. For the autologous blood model, 30 μl of non-heparinized blood was withdrawn from the angular vein. The first 5 μl blood was injected at a depth of 3 mm beneath the hole, and the rest 25 μl blood were injected at 3.7 mm beneath the hole with a rate of 1 μl/min. In the collagenase model, 0.038 U of the bacterial collagenase (in 0.5 μl saline) was infused to the striatum (0.5 mm anterior, 2.3 mm right lateral, and 3.5 mm deep relative to bregma) at a speed of 0.5 μl/min. Mice on the sham control were injected with an equal volume of saline. Throughout the procedure, the body temperature was maintained at 37° C. with a homeothermic blanket. After the surgery, mice were under observation with free access to food and water. […]
The total lesion volume was measured on the 7T small-animal MM scanner (Bruker, Corp., USA) as described (Li et al., 2017). The T2-weighted water imaging was recorded with following parameters (repetition time (TR)=4500 ms, echo time (TE)=65.5 ms, field of view (FOV)=28×28 mm^2, image matrix=256×256, at 0.5-mm slice thickness). […] The volumes were manually outlined and calculated by multiplying the sum of the volume by the distance between sections (0.5 mm) using MIPAV software. PHE volumes were calculated as total lesion volume minus hematoma volume. MRI data were analyzed by two investigators blinded to experimental groups.

| Compound | IC50 [1] | peri-hematomal edema ([2]; at 3 days after ICH) | hematoma size [2] |
| --- | --- | --- | --- |
| Cc1ccc(O)c(-c2[nH]nc3c2C(c2ccc(C(F)(F)F)cc2)N(C2CCNCC2)C3=O)c1 (racemic) [Compound 4, Rac-3-(2-hydroxy-5-methylphenyl)-5-(piperidin-4-yl)-4-(4-(trifluoromethyl)phenyl)-4,5-dihydropyrrolo[3,4-c]pyrazol-6(2H)-one] | 1000 to 10000 nM | – | – |
| O=C1c2n[nH]c(-c3cc(Cl)ccc3O)c2C(c2ccc(C(F)(F)F)cc2)N1C1CCOCC1 (racemic) [Compound 9, Rac-3-(5-chloro-2-hydroxyphenyl)-5-(tetrahydro-2H-pyran-4-yl)-4-(4-(trifluoromethyl)phenyl)-4,5-dihydropyrrolo[3,4-c]pyrazol-6(2H)-one] | 100 to 1000 nM | – | – |
| Cc1ccc(O)c(-c2[nH]nc3c2[C@H](c2ccc(C(F)(F)F)cc2)N(C2CCOCC2)C3=O)c1 (single isomer, unassigned) [Compound 2] | 100 to 1000 nM | – | – |
| Cc1ccc(O)c(-c2[nH]nc3c2[C@@H](c2ccc(C(F)(F)F)cc2)N(C2CCOCC2)C3=O)c1 (single isomer, unassigned) [Compound 3] | 1000 to 10000 nM | – | – |
| O=C1c2n[nH]c(-c3ccccn3)c2C(c2ccc(Cl)cc2)N1C1CCOCC1 (racemic) [Comp14] | – | significantly reduced | no difference |
| CC(=O)N1CCC(N2C(=O)c3n[nH]c(-c4cc(C)ccc4O)c3C2c2ccc(C(F)(F)F)cc2)CC1 (racemic) [Compound 5, Rac-5-(1-acetylpiperidin-4-yl)-3-(2-hydroxy-5-methylphenyl)-4-(4-(trifluoromethyl)phenyl)-4,5-dihydropyrrolo[3,4-c]pyrazol-6(2H)-one] | 100 to 1000 nM | – | – |
| COC1CCC(N2C(=O)c3n[nH]c(-c4cc(C)ccc4O)c3C2c2ccc(C(F)(F)F)cc2)CC1 (racemic) [Compound 8, Rac-3-(2-hydroxy-5-methylphenyl)-5-((1r,4r)-4-methoxycyclohexyl)-4-(4-(trifluoromethyl)phenyl)-4,5-dihydropyrrolo[3,4-c]pyrazol-6(2H)-one] | 1000 to 10000 nM | – | – |
| CO[C@H]1CC[C@@H](N2C(=O)c3n[nH]c(-c4cc(C)ccc4O)c3C2c2ccc(C(F)(F)F)cc2)CC1 (mixture of isomers) [Compound 7, rac-3-(2-hydroxy-5-methylphenyl)-5-((1S,4S)-4-methoxycyclohexyl)-4-(4-(trifluoromethyl)phenyl)-4,5-dihydropyrrolo[3,4-c]pyrazol-6(2H)-one] | 1000 to 10000 nM | – | – |

The next lines start with results.

| IC50 [1] | Compound | peri-hematomal edema ([2]; at 3 days after ICH) | hematoma size [2] |
| --- | --- | --- | --- |
| 1000 to 10000 nM | O=C1c2n[nH]c(-c3cc(F)ccc3O)c2C(c2ccc(C(F)(F)F)cc2)N1C1CCOCC1 (racemic) [Compound 13, rac-3-(5-fluoro-2-hydroxyphenyl)-5-(tetrahydro-2H-pyran-4-yl)-4-(4-(trifluoromethyl)phenyl)-4,5-dihydropyrrolo[3,4-c]pyrazol-6(2H)-one] | – | – |
| 1000 to 10000 nM | O=C1c2n[nH]c(-c3cc(F)ccc3O)c2C(c2ccc(Cl)cc2)N1C1CCOCC1 (racemic) [Compound 10, Rac-4-(4-chlorophenyl)-3-(5-fluoro-2-hydroxyphenyl)-5-(tetrahydro-2H-pyran-4-yl)-4,5-dihydropyrrolo[3,4-c]pyrazol-6(2H)-one] | – | – |
| 1000 to 10000 nM | O=C1c2n[nH]c(-c3cc(F)ccc3O)c2[C@@H](c2ccc(Cl)cc2)N1C1CCOCC1 (single isomer, unassigned) [Compound 12] | – | – |
| 1000 to 10000 nM | O=C1c2n[nH]c(-c3ccccn3)c2C(c2ccc(Cl)cc2)N1C1CCOCC1 (racemic) [Compound 14, Rac-4-(4-chlorophenyl)-3-(pyridin-2-yl)-5-(tetrahydro-2H-pyran-4-yl)-4,5-dihydropyrrolo[3,4-c]pyrazol-6(2H)-one] | – | – |
| 1000 to 10000 nM | O=C1c2n[nH]c(-c3cc(F)ccc3O)c2[C@H](c2ccc(Cl)cc2)N1C1CCOCC1 (single isomer, unassigned) [Compound 11] | – | – |
